Test systems include 786-0 renal; A549 NSCLC; CCRF-CEM leukemia; K-562 leukemia; MCF7 breast; SK-MEL-28 melanoma; SN12C renal; SR leukemia; U251 CNS; UO-31 renal.
Assay in all cases: inhibition of tumour cell growth, NCI panel, 48 h

Each structure is given as a SMILES string. Where “and” joins values, the source holds several entries; their conditions need not be identical. Identical values can stand only once.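 A five-concentration, 48-hour dose response in 96-well plates underlies each endpoint, interpolated linearly between surrounding concentrations. At the GI50, growth is halved. TGI: total growth inhibition.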 Some results are limits rather than exact numbers.

As to `CC/C=C\C[C@H](O)C/C=C1/C(=O)C=C[C@@H]1C/C=C\CCCC(=O)OC`, the GI50 was 1.86 µM with 786-0 renal; 2.78 µM with A549 NSCLC; 0.368 µM in the assay with CCRF-CEM leukemia; 0.732 µM in the assay on K-562 leukemia; 0.376 µM with MCF7 breast; 1.81 µM in the assay with SK-MEL-28 melanoma. The GI50 in the assay on SN12C renal was 2.55 µM; with SR leukemia, 0.403 µM; with U251 CNS it was 1.63 µM; in the assay on UO-31 renal, 1.75 µM. The TGI is 3.62 µM with 786-0 renal; 7.63 µM in the assay with A549 NSCLC; 11.4 µM with CCRF-CEM leukemia; 21.7 µM with K-562 leukemia; 3.62 µM with MCF7 breast; 4.37 µM with SK-MEL-28 melanoma. The TGI with SN12C renal was found to be 10.2 µM; with SR leukemia it was 6.18 µM; in the assay with U251 CNS, 4.07 µM; in the assay with UO-31 renal, 3.4 µM.
`O=C1c2cccnc2-c2nc(-c3ccc(Cl)cc3)cc3c2c1nc1ccccc13`: the GI50 was 12.8 µM in the assay on 786-0 renal; 35.6 µM with A549 NSCLC; more than 100 µM in the assay on CCRF-CEM leukemia; 38.7 µM in the assay on K-562 leukemia; 18.8 µM with MCF7 breast; 34.7 µM in the assay with SK-MEL-28 melanoma. Besides, the GI50 with SN12C renal is 24 µM; in the assay with SR leukemia it was 7.38 µM; in the assay on U251 CNS it was 9.24 µM; with UO-31 renal it was 46.9 µM. Besides, the TGI is 29.7 µM with 786-0 renal; more than 100 µM with A549 NSCLC; more than 100 µM in the assay on CCRF-CEM leukemia; more than 100 µM with K-562 leukemia; 75.4 µM with MCF7 breast; more than 100 µM in the assay on SK-MEL-28 melanoma. Further, the TGI was more than 100 µM in the assay on SN12C renal, more than 100 µM with SR leukemia, 37.1 µM in the assay on U251 CNS and more than 100 µM in the assay with UO-31 renal.
On to `Nc1nc(Nc2cccnc2)sc1C(=O)c1ccccc1F`, for which the GI50 was 3.18 µM with 786-0 renal; 3.16 µM with A549 NSCLC; 2.19 µM with CCRF-CEM leukemia; 6.69 µM in the assay with K-562 leukemia; 1.94 µM with MCF7 breast; 4.13 µM in the assay on SK-MEL-28 melanoma. Besides, the GI50 in the assay on SN12C renal was 3.02 µM; in the assay on SR leukemia, 0.709 µM; in the assay on U251 CNS it was 2.71 µM; in the assay on UO-31 renal it was 2.45 µM. For the same molecule, the TGI is more than 34.9 µM in the assay on 786-0 renal; more than 100 µM in the assay with A549 NSCLC; more than 21.9 µM in the assay on CCRF-CEM leukemia; more than 65.4 µM with K-562 leukemia; 8.41 µM with MCF7 breast; 22.3 µM in the assay on SK-MEL-28 melanoma. Also, the TGI is more than 100 µM in the assay on SN12C renal, more than 100 µM in the assay on U251 CNS and more than 26.5 µM in the assay on UO-31 renal.
Consider `CC1=C(/C=C/Cl)CC(Cl)C(C)(Cl)C1` (centres undefined), for which the TGI with 786-0 renal was more than 100 µM; in the assay with A549 NSCLC, more than 100 µM; in the assay on CCRF-CEM leukemia, 74.2 µM; in the assay with K-562 leukemia, more than 100 µM; in the assay on MCF7 breast, more than 100 µM; with SK-MEL-28 melanoma, more than 100 µM. Moreover, the TGI in the assay on SN12C renal, in the assay on SR leukemia, in the assay on U251 CNS and in the assay on UO-31 renal was more than 100 µM each time.
Take `CC1=CC(=O)C=CC1=O`: the GI50 in the assay on 786-0 renal is 19.3 µM and 19.1 µM; with A549 NSCLC it was 79.4 µM and 24.9 µM; in the assay on CCRF-CEM leukemia it was 2.73 µM; with K-562 leukemia, 3 µM and 4.38 µM; with MCF7 breast, 14.7 µM and 15.4 µM; in the assay with SK-MEL-28 melanoma, 16.9 µM and 17.9 µM. Besides, the GI50 was 28.7 µM in the assay with SN12C renal; 1.63 µM and 9.34 µM with SR leukemia; 57.4 µM and 15.4 µM with U251 CNS; 12.7 µM and 4.8 µM in the assay with UO-31 renal. The TGI with 786-0 renal is 33.8 µM and 34.2 µM; with A549 NSCLC it was 66.8 µM; in the assay on CCRF-CEM leukemia it was 10.5 µM; with MCF7 breast, 34.5 µM and 41.4 µM; in the assay on SK-MEL-28 melanoma it was 30.8 µM and 32.6 µM; in the assay on U251 CNS it was 28.9 µM. Further, the TGI in the assay on UO-31 renal is 26 µM and 17.6 µM.
`Cc1cc(C(=O)Nc2ccc3cc(CN4CCOCC4)ccc3n2)c(C)n1-c1ccccc1`: the GI50 with 786-0 renal was 4.75 µM; with A549 NSCLC, 2.42 µM; in the assay on CCRF-CEM leukemia, 1.86 µM; with K-562 leukemia, 1.06 µM; in the assay with MCF7 breast, 1.87 µM; in the assay with SK-MEL-28 melanoma, 2.91 µM. Moreover, the GI50 in the assay on SN12C renal is 5.75 µM; with SR leukemia, 2.6 µM; in the assay with U251 CNS, 3.78 µM; in the assay on UO-31 renal, 2.24 µM. Moreover, the TGI in the assay with 786-0 renal was 17.9 µM; in the assay on A549 NSCLC it was 12.1 µM; with CCRF-CEM leukemia, more than 93.7 µM; in the assay on K-562 leukemia, more than 55.3 µM; with MCF7 breast, 10.8 µM; in the assay on SK-MEL-28 melanoma, 8.91 µM. Further, the TGI in the assay on SN12C renal is more than 92.3 µM; in the assay with SR leukemia, more than 74.8 µM; in the assay on U251 CNS it was more than 100 µM; in the assay on UO-31 renal, 33.5 µM.
With `N#Cc1cc(-c2cc3ccccc3o2)oc1N`, the GI50 is 4.74 µM in the assay with 786-0 renal; 3.7 µM with A549 NSCLC; 3.72 µM in the assay on CCRF-CEM leukemia; 3.58 µM in the assay on K-562 leukemia; 2.66 µM with MCF7 breast; 6.54 µM in the assay with SK-MEL-28 melanoma. Moreover, the GI50 in the assay with SN12C renal was 3 µM; in the assay with SR leukemia, 0.764 µM; in the assay on U251 CNS, 3.15 µM; in the assay on UO-31 renal it was 3.72 µM. The TGI was 22.5 µM with 786-0 renal; more than 100 µM in the assay on A549 NSCLC; 21.2 µM in the assay on CCRF-CEM leukemia; more than 100 µM with K-562 leukemia; 15.3 µM in the assay with MCF7 breast; 19.7 µM in the assay with SK-MEL-28 melanoma. The TGI amounted to 11.8 µM with SN12C renal, 3.1 µM in the assay with SR leukemia, 14.7 µM with U251 CNS and 18.2 µM with UO-31 renal.
As for `COc1ccc(C[N+](C)(C)N)cc1OC`, the GI50 in the assay on 786-0 renal, in the assay with A549 NSCLC, in the assay on CCRF-CEM leukemia, with MCF7 breast, in the assay on SK-MEL-28 melanoma and in the assay with SN12C renal was more than 100 µM in each case. Also, the GI50 in the assay on SR leukemia and with U251 CNS was more than 100 µM in each case. Besides, the TGI in the assay on 786-0 renal, in the assay on A549 NSCLC, in the assay with CCRF-CEM leukemia, in the assay with K-562 leukemia, in the assay on MCF7 breast and with SK-MEL-28 melanoma was more than 100 µM in each case. Besides, the TGI in the assay on SN12C renal, with SR leukemia, in the assay on U251 CNS and in the assay with UO-31 renal was more than 100 µM in each case.

The record behind these values is PubChem BioAssay (NCI).
